Assay results reported in PubChem BioAssay (NCI).
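Tested at 5 concentrations; 48 h exposure; 96-well plates; endpoints linearly interpolated, else capped at highest concentration. TGI is the concentration that stops growth completely.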

Assays:
Experiment in all cases: inhibition of tumour cell growth, NCI panel, 48 h
HOP-92 NSCLC = test system: HOP-92 NSCLC
MDA-MB-435 = test system: MDA-MB-435
SK-MEL-2 melanoma = test system: SK-MEL-2 melanoma
ACHN renal = test system: ACHN renal
MDA-MB-231 breast = test system: MDA-MB-231 breast
LOX IMVI melanoma = test system: LOX IMVI melanoma
RXF 393 renal = test system: RXF 393 renal

| Structure (SMILES) | TGI (HOP-92 NSCLC) [µM] | TGI (MDA-MB-435) [µM] | TGI (SK-MEL-2 melanoma) [µM] | TGI (ACHN renal) [µM] | TGI (MDA-MB-231 breast) [µM] | TGI (LOX IMVI melanoma) [µM] | TGI (RXF 393 renal) [µM] |
| --- | --- | --- | --- | --- | --- | --- | --- |
| CCN(CC)CCCC(C)NC(=O)c1cc(-c2nccn2C)nc2ccc(C)cc12 (stereo unspecified) | > 100 | > 100 | > 100 | > 100 | > 100 | > 100 | > 100 |
| Oc1ccc2ccccc2c1-c1c(Nc2ccccc2)ccc2ccccc12 | > 46.5 | 20.2 | 36.3 | 38.8 | 28.1 | 48.5 | 34.3 |
| CC(=O)c1ccc(N2CCN(c3c(O)c4c(c(O)c3Cl)C(=O)C=CC4=O)CC2)cc1 | 5.13 |  |  |  | 5.5 |  | 9.44 |
| Cn1c(N(CCO)CCO)cnc1[N+](=O)[O-] | > 100 | > 100 | > 100 | > 100 | > 100 | > 100 | > 100 |
| NC(=O)NC(CC(=O)O)C(=O)O (stereo unspecified) | > 100 | > 100 | > 100 | > 100 | > 100 | > 100 | > 100 |
| C=CC1(c2ccc3ccccc3c2)OCC(CC)(CC)CO1 | 52 | 65.7 | 34.7 | 38.8 | 33.9 | 34.5 | 36.2 |
| COc1ccc(/C=C/C(=O)c2nc3ccccc3[nH]2)cc1 | 35.6 | > 100 | > 100 | 34.5 | 48.9 | 28.2 | 35.3 |
| Oc1ccc(-c2c3ccccc3c(-c3ccc(OCCBr)cc3)c3ccccc23)cc1 |  | 42 | 63.5 | 90.7 | 44.6 | 38.9 | 64.3 |
| CCCCCCNC(=O)c1cc(C#Cc2cc(OC)ccc2OC)ccc1OC | > 100 | 13.4 | > 100 | > 100 | > 100 | > 100 |  |
| C=C[C@@]1(C)CC2CC[C@]3(C)C(C)=CC(=O)CC3[C@]2(C)CC1O (stereo partly specified) | > 100 | > 100 | > 100 | > 100 |  | > 100 | > 100 |
| CC(=O)OCc1cccc(O)c1C(=O)CCC=C(C)C | > 100 | > 100 | > 100 | > 100 |  | > 100 | > 100 |
| CSc1c(CC(=O)O)n(Cc2ccccc2)c2ccccc12 | > 100 | > 100 | > 100 | > 100 | > 100 | > 100 | > 100 |
| Cn1c(=O)cc(NNc2ccc(Br)cc2)[nH]c1=O | 27.7 | 25.3 |  | 29.9 | 27.7 | 4.13 |  |
| C[C@@H]1CCC2[C@@H](C)[C@H](O[C@H]3O[C@@H]4O[C@@]5(C)CCC6[C@H](C)CCC([C@H]3C)[C@]64OO5)O[C@@H]3O[C@@]4(C)CCC1[C@@]23OO4 (stereo partly specified) | 11.4 | 21.6 | 9.69 | 14.2 | 13.1 | 1.58 | 21.4 |
| CN(C)C1(C(=O)O)CC1 | > 100 | > 100 |  | > 100 |  | > 100 | > 100 |
| O=C(N1CCOCC1)C1(c2ccccc2)CCNCC1 | > 100 | > 100 | > 100 | > 100 | > 100 | > 100 | > 100 |
| O=C1NCC2(CCN(Cc3ccccc3)CC2)N1 | > 100 | > 100 | > 100 | > 100 | > 100 | > 100 | > 100 |
| CC1(C)N(OC2CCCCO2)C(c2ccccc2)C(c2ccccc2)=[N+]1[O-] (stereo unspecified) | > 100 |  | > 100 | > 100 | > 100 | > 100 | > 100 |
| COc1ccc(C(=O)/C=C2\c3ccccc3C(=O)N2C)cc1 | 75.7 | > 100 | > 100 | > 100 | > 100 | > 100 | 82.8 |
| CC(=O)Nc1ccc2c3c(cc(O)c2c1)N(C(=O)CCCC(=O)Nc1ccc2c4c(cc(O)c2c1)N(C(=O)OC(C)(C)C)CC4CCl)CC3CCl (stereo unspecified) | > 15.1 | 2 | 1.84 | 31.2 | 3.74 | > 12.4 | 10.6 |

| Structure (SMILES) | TGI (HOP-92 NSCLC) [µM] | TGI (MDA-MB-435) [µM] | TGI (SK-MEL-2 melanoma) [µM] | TGI (ACHN renal) [µM] | TGI (MDA-MB-231 breast) [µM] | TGI (LOX IMVI melanoma) [µM] | TGI (RXF 393 renal) [µM] |
| --- | --- | --- | --- | --- | --- | --- | --- |
| COc1ccc(C2=NN(C(=O)c3ccccc3)C(O)(c3cc(F)c(Cl)cc3Cl)C2)cc1OC (stereo unspecified) | 78.9 | > 100 | 91.7 | > 100 | > 100 | > 100 | 55.5 |
| COC(=O)c1cc(C)n2c1CS[C@@H]2c1ccccc1 | 76.8 | 79 | 91.8 | > 100 | > 100 | > 100 | 55.5 |
| NCCCCC(N)C(=O)N1CCN(c2nc(N3CCCC3)c3nc(Cl)c(NCc4ccccc4)nc3n2)CC1 (stereo unspecified) | 25.8 | 46.6 | 35.9 | 38.1 | 34.3 | 35.9 | 34 |
| CC1=Nc2nc3ccccc3n2C(C)(C)C1 | > 100 | > 100 | > 100 | > 100 | > 100 | > 100 | > 100 |
| OCCOCCN1CCN(c2nc(N3CCCC3)c3nc(Cl)c(NCc4ccccc4)nc3n2)CC1 | 26.2 | 26 | 32 | 27.2 | 32.7 | 23 | 11.8 |
| O=C(CC(=O)N(C(=O)c1ccccc1)c1ccc(Cl)cc1)N/N=C\c1ccccc1O | 75 | > 100 | > 100 | > 100 | > 100 | > 100 | > 100 |
| CC(Oc1ccccc1)C(=O)NN (stereo unspecified) | > 100 | > 100 | > 100 | > 100 | > 100 | > 100 | > 100 |
| C/C(O)=C(/C=N\C(=S)Nc1ccc(Cl)c(Cl)c1)C(=O)Nc1ccccc1C | 58.1 | > 100 | > 100 | > 100 | > 100 | > 100 | > 100 |
| NC(=O)Cc1ncn(-c2ccccc2)n1 | > 100 | > 100 | > 100 | > 100 | > 100 | > 100 | > 100 |
| COc1ccc(-c2nc(N(C)C)c3ccccc3n2)cc1 | 68.8 | 33.8 | 41.7 | 53.5 | 96.5 | 28.8 | 24.7 |
| Cc1cccc2nc3n(c12)C(=O)c1ccccc1-3 | > 100 |  | > 100 | > 100 |  |  | > 100 |
| COc1ccc2c(C)cc(N/N=C/c3sccc3C)nc2c1 | 47.5 | 35.4 | 29.8 | > 100 | 5.9 | 21.5 | 32 |
| COc1ccc(N2C(=O)CSC2c2cc3cc(Br)ccc3nc2Cl)cc1 (stereo unspecified) | > 50 | > 50 | > 50 | > 50 | > 50 | > 50 | > 50 |
| COc1ccc(-n2nnc3c(C#N)c(-c4ccccc4)c(C)n3c2=O)cc1 | > 100 | > 100 | 83.8 | > 100 | 81.6 | > 100 | 93.8 |
| OC(c1ccc(F)cc1)C(F)(F)c1nc(-c2ccccc2)no1 (stereo unspecified) | 91.9 | 35.6 | 39.1 | 67.2 | 42.8 | > 100 |  |
| COC(=O)[C@@]12CC[C@]1(C(=O)OC)C1C(C)=CC(=O)O[C@@]12C (stereo partly specified) | > 100 | > 100 |  | > 100 | > 100 | > 100 | > 100 |
| CN1C[C@H]2[C@@H](C1=O)[C@H](c1ccc([N+](=O)[O-])cc1)ON2C | > 100 | > 100 | > 100 | > 100 | > 100 | > 100 |  |
| CC1=NN(c2nc(N)nc(C(C)Sc3cc(Cl)c(C)cc3S(N)(=O)=O)n2)C(C)(C)C1 (stereo unspecified) | > 10 |  | > 10 | > 10 |  | > 10 | > 10 |
| OC(c1ccsc1)c1cc2ccccc2s1 (stereo unspecified) | > 10 | > 10 | > 10 | > 10 | > 10 | > 10 | > 10 |
| CCCCCCc1cc2cc(C(=O)Nc3ccccc3F)c(=N)oc2cc1O |  | 10.2 | 26.8 | 25.6 |  | 19.4 |  |

| Structure (SMILES) | TGI (HOP-92 NSCLC) [µM] | TGI (MDA-MB-435) [µM] | TGI (SK-MEL-2 melanoma) [µM] | TGI (ACHN renal) [µM] | TGI (MDA-MB-231 breast) [µM] | TGI (LOX IMVI melanoma) [µM] | TGI (RXF 393 renal) [µM] |
| --- | --- | --- | --- | --- | --- | --- | --- |
| CN(C)CCCc1cccnc1 | > 100 | > 100 | > 100 | > 100 | > 100 | > 100 | > 100 |
| CC/C(Cl)=N\OC(=O)Nc1ccccc1OC(F)(F)F | 6.15 | 40.7 | 32.8 | 3.69 | 34.2 | 5.65 | 32.6 |
| CC1=NN(C(=O)CC(=O)Nc2ccccc2C)C(=O)C1N=Nc1ccc(S(=O)(=O)c2ccc(N=NC3C(=O)N(C(=O)CC(=O)Nc4ccccc4C)N=C3C)cc2)cc1 (stereo unspecified) | > 100 | > 100 | > 100 | > 100 | > 100 | > 100 | > 100 |
| COc1cc(COC(=O)N2CCCCC2C(=O)O)c([N+](=O)[O-])cc1OC (stereo unspecified) | > 100 | > 100 |  | > 100 |  |  | > 100 |
| CSC(=NC1CC(n2cc(C)c(=O)[nH]c2=O)OC1CO)NC#N (stereo unspecified) | > 100 | > 100 | > 100 | > 100 | > 100 | > 100 | > 100 |
| CC1CC(=O)N2CCCNC2=C1C#N (stereo unspecified) |  | > 100 | > 100 |  | > 100 | > 100 | > 100 |
| CCOC(=O)C1(Cc2ccccc2)Cc2cc3c(cc2C1=O)CCC3 (stereo unspecified) | > 100 | > 100 | > 100 | > 100 | > 100 | > 100 | > 100 |
| CCOC(=O)C1=C(OS(=O)(=O)C(F)(F)F)CCCC1 | > 100 | > 100 | > 100 | > 100 | > 100 | > 100 | > 100 |
| CC(=O)c1c2c(cc3c1CC1(Cc4cc5c(cc4C1=O)CCC5)C3)CCC2 (stereo unspecified) |  | > 100 | > 100 | > 100 | > 100 | > 100 |  |
| Cc1[nH]c2ncn3ncnc3c2c1Cc1ccccc1 | > 100 | > 100 | > 100 | > 100 | > 100 |  | > 100 |
| Cc1cc(=O)oc2c(CNC(C)C(=O)O)c(O)ccc12 (stereo unspecified) | > 100 | > 100 | > 100 | > 100 | > 100 | > 100 | > 100 |
| COC(=O)c1ccccc1/C=C1\Cc2cc3c(cc2C1=O)CCC3 |  |  | > 100 | > 100 | > 100 | > 100 |  |
| CC(C)(C)c1ccc(-c2nc3ccccc3c(=O)o2)cc1 | > 100 | > 100 | 66.6 | > 100 |  | 37.4 | > 100 |
| CCc1ccc(CCC(=O)O)nc1 | > 100 | > 100 | > 100 | > 100 | > 100 | > 100 | > 100 |
| Cn1c(=O)nc2n(CCO)ccnc-2c1=O | > 100 | > 100 | > 100 | > 100 | > 100 | > 100 | > 100 |
| Cc1nc2c(O)cccc2c(=O)[nH]1 | > 1000 | > 1000 | > 1000 | > 1000 |  | > 1000 | > 1000 |
| Cc1c(C)c(S(=O)(=O)N(CCCCCN)OCCCN)c(C)c2c1OC(C)(C)CC2 | 67.6 | 15.3 | 11.2 | 39 | 31.7 | > 44.4 | 71.9 |
| C[C@H](CCC(=O)O[C@@H]1CC[C@@]2(C)C(CC[C@H]3[C@@H]4CC[C@H]([C@H](C)CCc5nc6ccccc6[nH]5)[C@@]4(C)CC[C@@H]32)C1)[C@H]1CC[C@H]2[C@@H]3CCC4C[C@H](O)CC[C@]4(C)[C@H]3CC[C@]12C (stereo partly specified) | > 100 | > 100 | > 100 | > 100 | > 100 | > 100 | > 100 |
| O=C(Cn1c(C(=O)/C=C/c2ccco2)nc2ccccc21)c1ccc(Cl)cc1 | > 100 | 32.7 | 27.8 | > 100 | 59.8 | 26.7 | > 100 |
